The supplement of paper PMC8882468

Tests used:
Assay in all cases: CTG-3D luminescence at 96 h relative to day-0 seeding control (ratio to day 0); higher = more growth / less cytotoxicity; PDxO 3D drug screen (set 2), 96 h, CTG-3D normalised to day-0 seeding control.
HCI-008 = tested on: HCI-008 (organoid from a HER2-enriched breast cancer xenograft)
HCI-017.E2 = tested on: HCI-017.E2 (organoid from an ER-positive breast cancer xenograft)
HCI-011.E2 = tested on: HCI-011.E2 (organoid from an ER-positive breast cancer xenograft)
HCI-025 = tested on: HCI-025 (organoid from a breast cancer xenograft)
HCI-016 = tested on: HCI-016 (organoid from a triple-negative breast cancer xenograft)

CO[C@H]1C[C@@H]2CC[C@@H](C)[C@@](O)(O2)C(=O)C(=O)N2CCCC[C@H]2C(=O)O[C@H]([C@H](C)C[C@@H]2CC[C@@H](OCCO)[C@H](OC)C2)CC(=O)[C@H](C)/C=C(\C)[C@@H](O)[C@@H](OC)C(=O)[C@H](C)C[C@H](C)/C=C/C=C/C=C/1C [everolimus]
CTG-3D luminescence at 96 h
Details	12.5 pM	0.00025 µM	0.005 µM	0.1 µM	1 µM	10 µM	100 µM	625 fM
HCI-008, days in culture: 325	0.998	1.62	1.03	2.85	2.2	1.15	-0.00335	1.28
HCI-008, days in culture: 340	1.1	1.26	1.65	0.457	1.04	–	-0.000653	1.09
HCI-008, days in culture: 354	1.49	0.714	2.05	0.859	0.973	0.697	-0.00248	0.841
HCI-008, days in culture: 382	1.54	1.42	1.04	1.1	0.451	0.406	-0.000828	1.26
HCI-011.E2, days in culture: 74	2.42	2.16	1.14	0.719	0.223	0.141	-0.0134	2.48
HCI-016, days in culture: 305	1.91	2.37	1.91	2.63	1.49	1.46	-0.0112	3.94
HCI-016, days in culture: 327	0.724	1	1.4	1.68	0.673	1.5	-0.00208	0.809
HCI-016, days in culture: 341	1.86	1.39	1.69	1.34	1.18	1.47	-0.00301	2.31
HCI-016, days in culture: 397	2.02	1.53	1.5	1.31	0.567	0.757	-0.000194	2.23
HCI-017.E2, days in culture: 85	2.06	1.86	1.32	0.959	0.595	0.493	0.00146	2.29
HCI-025, days in culture: 175	1.08	0.994	0.949	1.13	1.44	1.35	0.00118	1.41
HCI-025, days in culture: 189	1.44	1.22	1.34	1.21	0.974	0.917	0.000135	2.02
HCI-025, days in culture: 212	1.18	2.27	2.08	0.487	0.322	0.167	-0.000795	1.43
HCI-025, days in culture: 224	1.8	2.05	1.58	0.608	0.581	0.366	-0.00196	1.74

CTG-3D luminescence at 96 h
Details	12.5 pM	0.00025 µM	0.005 µM	0.1 µM	1 µM	10 µM	100 µM	625 fM
HCI-011.E2	0.746	0.907	0.684	0.675	0.247	0.327	-4.7e-05	1.14
HCI-017.E2	1.59	1.63	1.8	1.25	0.822	0.73	0.00266	1.99
